What was measured:
[1] = Water solubility of the preparation; format: physicochemical
[2] = system: Chrysanthemum indicum (Sorte: Yellow Delaware); assay: Iron deficiency control / leaf uptake test (Eisenmangel-Bekämpfung / Blattaufnehmbarkeits-Test); format: in vivo; conditions: for Intenistät der Grünfärbung junger Blätter / Ø Anzahl neu gebildeter Blätter: sprayed twice on fully chlorotic plants
Text: Eisenmangel-Bekämpfung / Blattaufnehmbarkeits-Test
In einem Kultursubstrat der oben angegebenen Zusammensetzung werden Versuchspflanzen angezogen, wobei die Dünung und die Bewässerung dadurch erfolgt, daß man zweimal wöchentlich eine mineralische Eisenmangel-Nährlösung nach Hoagland und Arnon (Circular 347, College of Agriculture, University of California, Berkeley 1950) hinzugibt. Die so angezogenen völlig chlorotischen Versuchspflanzen werden in Fünfblattstadium mit der Wirkstoffzubereitung tropfnaß besprüht, wobei durch Abdecken dafür gesorgt wird, daß die Wirkstoffzubereitung nicht in das Kultursubstrat gelangt. Nach 2 Tagen wird erneut in gleicher Weise mit der Wirkstoffzubereitung besprüht. Die Auswertung erfolgt dann, wenn bei den mit einem wasserlöslichen, handelsüblichen Eisen-Dünger in optimaler Menge behandelten Pflanzen durchschnittlich 3 Blätter neu gebildet sind. Es wird jeweils die durchschnittliche Anzahl neu gebildeteter Blätter bei allen Versuchspflanzen ermittelt. Ferner wird die Intensität der Grünfärbung von neu gebildeten Blättern bonitiert und durch Kennzahlen ausgedrückt.

[3] = 0,1 % preparation in spray liquid
[4] = 0,02 % preparation in spray liquid
[5] = 0,5 % preparation in spray liquid

Compound	Wasserlöslichkeit des Präparates [1]	Intenistät der Grünfärbung junger Blätter [2, 3]	Ø Anzahl neu gebildeter Blätter [2, 3]	Intenistät der Grünfärbung junger Blätter [2, 4]	Ø Anzahl neu gebildeter Blätter [2, 4]	Intenistät der Grünfärbung junger Blätter [2, 5]	Ø Anzahl neu gebildeter Blätter [2, 5]	Eisenmangel ([2]; fully chlorotic Chrysanthemum indicum, Sorte Yellow Delaware)
CC(CC(=O)[c-]1cccc1)CC(C)(C)C.[Fe+2].c1cc[cH-]c1 (stereo not drawn) [3,5,5-Trimethylhexanoyl-ferrocen]	gering	2	5	3 (25 %-ig chlorotisch)	4	1 (0 %-ig chlorotisch (dunkelgrün))	7	stark verringern oder sogar völlig beheben
CCC(=O)c1cc[cH-]c1.[Fe+2].c1cc[cH-]c1 [Propionylferrocen, reference compound]	gering	3 (25 %-ig chlorotisch)	4	8	3	2	5	

— EP0004894A1, “Fertilizer for providing plants with iron” (BAYER AG, priority 1978, dated 1979)
